In patent US20240002419A1, “RADIATION-ACTIVATED TETRAVALENT PLATINUM COMPLEX AND USE THEREOF” (priority 2020, published 2024):

assay: Yield of reduced metal compounds under X-ray irradiation; assay type: physicochemical; conditions: not given
Method: Operation steps of test: the compound was dissolved in ultrapure water to prepare a 100 μM metal compound solution, and oxygen gas in the solution was removed by bubbling nitrogen gas for 15 minutes. […] Finally, the remaining amount of raw material was measured, the disappeared concentration of the reactant was calculated, and the radiation yield was calculated (radiation yield=disappeared concentration of reactant/radiation dose).

SMILES	Yield (radiation yield = disappeared concentration of reactant/radiation dose)
O=P([O-])([O-])O.[K+].[K+] [Compound 3, dipotassium hydrogen phosphate]	(No metal cation reduction
[Cl-].[Cl-].[Mg+2] [Compound 4, magnesium chloride]	(No metal cation reduction
O=S(=O)([O-])[O-].[Cu+2] [Compound 13, copper sulfate]	209 nM/Gy

same assay, conditions: 100 μM in deoxygenated ultrapure water, X-rays 0-1000 Gy, 4 Gy/min

SMILES	Yield (radiation yield = disappeared concentration of reactant/radiation dose)
[Cl-].[Na+] [Compound 1, sodium chloride]	(No metal cation reduction
[Cl-].[K+] [Compound 2, potassium chloride]	(No metal cation reduction
[Cl][Fe]([Cl])[Cl] [Compound 5, ferric chloride]	578 nM/Gy
[K+].[K+].[O]=[Cr](=[O])([O-])[O][Cr](=[O])(=[O])[O-] [Compound 9, potassium dichromate]	87 nM/Gy
[Cl][Ni][Cl] [Compound 10, nickel chloride]	347 nM/Gy
O=[N+]([O-])[O-].[Ag+] [Compound 14, silver nitrate]	576 nM/Gy
C1=Cc2cc3ccc(cc4nc(cc5ccc(cc1n2)[nH]5)C=C4)[nH]3.[Fe] [Compound 16, iron porphyrin]	598 nM/Gy
[NH2][Pt]([NH2])([Cl])([Cl])([O]C(=O)CCCC[P+](c1ccccc1)(c1ccccc1)c1ccccc1)[O]C(=O)CCCC[P+](c1ccccc1)(c1ccccc1)c1ccccc1 [Compound 18]	427 nM/Gy

assay: Radiation-driven (γ-ray) release of Pt(II) drugs from Pt(IV) complexes, UPLC-MS and NMR; assay type: physicochemical; conditions: γ-rays (60Co, 40 kGy), D2O, deoxygenated
Description: To explore the generalizability of this strategy, we further conducted the same study on two other platinum-based drugs commonly used globally, carboplatin and cisplatin.

SMILES	Product released after irradiation
[NH2][Pt]1([NH2])([O]C(=O)CCC(=O)O)([O]C(=O)CCC(=O)O)[O]C(=O)C2(CCC2)C(=O)[O]1 [carboPt(IV)-(Suc)2]	release the corresponding Pt(II) drugs
N.N.O=C(O)CCC(=O)[O][Pt]([Cl])([Cl])[O]C(=O)CCC(=O)O [cisPt(IV)-(Suc)2]	release the corresponding Pt(II) drugs
NC1CCCCC1N.O=C(O)CCC(=O)[O][Pt]1([O]C(=O)CCC(=O)O)[O]C(=O)C(=O)[O]1 [oxaliPt(IV)-(Suc)2]	released product was oxaliplatin
